We go through 3 compounds from ChEMBL document CHEMBL3085703, “Synthetic cannabinoid quinones: preparation, in vitro antiproliferative effects and in vivo prostate antitumor activity” (Eur J Med Chem, 2013).

Active and inactive are the calls of the source. No cut-off for these calls is given here.

One assay deals with Cannabinoid receptor 1 (Homo sapiens, UniProt P21554). Put plainly: Displacement of [3H]CP55940 from human cannabinoid CB1 receptor expressed in HEK293 EBNA cells after 90 mins by liquid scintillation counting. In kind it is cell-based.
The target of the next assay is Cannabinoid receptor 2 (Homo sapiens, UniProt P34972). Put plainly: Displacement of [3H]CP55940 from human cannabinoid CB2 receptor expressed in HEK293 EBNA cells after 90 mins by liquid scintillation counting. The class given is cell-based. A general note: Loss of bound radioactivity is the signal in a displacement assay; it reports binding, not function.
Assay [1] concerns LNCaP. As to the kind of experiment: Antitumor activity against human LNCAP cells xenografted in BALB/c OlaHsd-Foxn1nu mouse assessed as tumor growth inhibition at 2 mg/kg, ip qd for 15 days. In kind it is functional, organism-based. Set-up: dose 2 mg/kg. In general terms: A xenograft is tissue or cells of one species grown in another, often human tumour cells in immunodeficient mice.

Assay [2] relates to LNCaP. Put plainly: Antiproliferative activity against human LNCAP cells after 48 hrs by MTT assay. The class given is functional, cell-based. (In general: Tetrazolium assays rely on reduction of a dye to a coloured formazan, in cell work by metabolically active cells.)
Assay [3] relates to LNCaP. As to the kind of experiment: Induction of apoptosis in human LNCAP cells assessed as early apoptotic cells at IC50 after 24 hrs using annexin V-FITC/PI staining by flow cytometric analysis (reference value: 1.24%). In kind it is functional.
Assay [4] relates to LNCaP. As to the kind of experiment: Cell cycle arrest in human LNCAP cells assessed as accumulation at S phase at IC50 after 24 hrs by flow cytometry analysis (reference value: 3.90%). The class given is functional.
For assay [5], the system named is LNCaP. Put plainly: Induction of apoptosis in human LNCAP cells assessed as late apoptotic cells at IC50 after 24 hrs using annexin V-FITC/PI staining by flow cytometric analysis (reference value: 2.96%). The class given is functional.
Assay [6] deals with PC-3. As to the kind of experiment: Cell cycle arrest in human PC3 cells assessed as accumulation at G2 phase at IC50 after 24 hrs by flow cytometry analysis (reference value: 22.90%). In kind it is functional.
In assay [7] the test system is LNCaP. As to the kind of experiment: Antiproliferative activity against human LNCAP cells after 48 hrs by MTT assay in presence of CB2 antagonist SR144528. In kind it is functional, cell-based.
For assay [8], the system named is LNCaP. Put plainly: Cell cycle arrest in human LNCAP cells assessed as accumulation at sub-G0 phase at IC50 after 24 hrs by flow cytometry analysis (reference value: 0.18%). The class given is functional.
Assay [9] has as its system LNCaP. Put plainly: Cell cycle arrest in human LNCAP cells assessed as accumulation at G1/G0 phase at IC50 after 24 hrs by flow cytometry analysis (reference value: 91.30%). In kind it is functional.
Assay [10] relates to LNCaP. Put plainly: Induction of apoptosis in human LNCAP cells assessed as viable cells at IC50 after 24 hrs using annexin V-FITC/PI staining by flow cytometric analysis (reference value: 12.33%). In kind it is functional.
Assay [11] has as its system PC-3. Put plainly: Induction of apoptosis in human PC3 cells assessed as late apoptotic cells at IC50 after 24 hrs using annexin V-FITC/PI staining by flow cytometric analysis (reference value: 4.45%). In kind it is functional.
Assay [12] has as its system PC-3. Put plainly: Induction of apoptosis in human PC3 cells assessed as viable cells at IC50 after 24 hrs using annexin V-FITC/PI staining by flow cytometric analysis (reference value: 9.96%). In kind it is functional.
For assay [13], the system named is LNCaP. As to the kind of experiment: Antiproliferative activity against human LNCAP cells after 48 hrs by MTT assay in presence of CB1 antagonist SR141716. In kind it is functional, cell-based.
The subject of assay [14] is LNCaP. As to the kind of experiment: Cell cycle arrest in human LNCAP cells assessed as accumulation at G2 phase at IC50 after 24 hrs by flow cytometry analysis (reference value: 5.62%). The class given is functional.
For assay [15], the system named is PC-3. Put plainly: Antitumor activity against human PC3 cells xenografted in BALB/c OlaHsd-Foxn1nu mouse assessed as tumor growth inhibition at 2 mg/kg, ip qd for 15 days. In kind it is functional. Particulars: PC-3, ip, 360 h, route intraperitoneal, read-out: TGI.
Assay [16] relates to LNCaP. Put plainly: Antiproliferative activity against human LNCAP cells after 48 hrs by MTT assay in presence of antioxidant N-acetylcysteine. In kind it is functional, cell-based.
The test system of assay [17] is PC-3. As to the kind of experiment: Cell cycle arrest in human PC3 cells assessed as accumulation at S phase at IC50 after 24 hrs by flow cytometry analysis (reference value: 6.97%). In kind it is functional.
Assay [18] relates to PC-3. Put plainly: Antiproliferative activity against human PC3 cells after 48 hrs by MTT assay. In kind it is functional, cell-based. Particulars: PC-3, 48 h.
Assay [19] has as its system PC-3. Put plainly: Cell cycle arrest in human PC3 cells assessed as accumulation at G1/G0 phase at IC50 after 24 hrs by flow cytometry analysis (reference value: 70%). The class given is functional.
A further assay concerns HepG2. Put plainly: Antiproliferative activity against human HepG2 cells after 48 hrs by MTT assay. Particulars: HepG2, 48 h. In kind it is functional, cell-based.
Assay [20] has as its system PC-3. As to the kind of experiment: Induction of apoptosis in human PC3 cells assessed as early apoptotic cells at IC50 after 24 hrs using annexin V-FITC/PI staining by flow cytometric analysis (reference value: 1.51%). In kind it is functional.
Assay [21] has as its system LNCaP. Put plainly: Antiproliferative activity against human LNCAP cells after 48 hrs by MTT assay in presence of PPARgamma antagonist GW9662. The class given is functional, cell-based.
In assay [22] the test system is PC-3. As to the kind of experiment: Cell cycle arrest in human PC3 cells assessed as accumulation at sub-G0 phase at IC50 after 24 hrs by flow cytometry analysis (reference value: 0.12%). In kind it is functional.

Usually Ki stands for a measure of affinity in units of concentration, obtained from inhibition or displacement. The low end stands for tighter binding, the high end for weaker binding. For orientation: IC50 means the point on the concentration scale where inhibition reaches its midpoint.

Chain of Cannabinoid receptor 2 (P34972 whole entry): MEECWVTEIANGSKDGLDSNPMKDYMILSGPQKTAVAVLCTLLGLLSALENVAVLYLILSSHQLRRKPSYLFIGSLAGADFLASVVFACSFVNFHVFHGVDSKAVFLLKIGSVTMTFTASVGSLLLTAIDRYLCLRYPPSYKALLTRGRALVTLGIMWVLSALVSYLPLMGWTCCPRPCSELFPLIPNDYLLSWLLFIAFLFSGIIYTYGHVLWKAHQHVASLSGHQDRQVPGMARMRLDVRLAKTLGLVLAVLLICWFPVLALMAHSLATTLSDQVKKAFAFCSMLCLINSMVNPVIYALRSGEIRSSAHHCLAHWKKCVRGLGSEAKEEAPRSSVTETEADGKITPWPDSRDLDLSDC
Chain of Cannabinoid receptor 1 (P21554 whole entry): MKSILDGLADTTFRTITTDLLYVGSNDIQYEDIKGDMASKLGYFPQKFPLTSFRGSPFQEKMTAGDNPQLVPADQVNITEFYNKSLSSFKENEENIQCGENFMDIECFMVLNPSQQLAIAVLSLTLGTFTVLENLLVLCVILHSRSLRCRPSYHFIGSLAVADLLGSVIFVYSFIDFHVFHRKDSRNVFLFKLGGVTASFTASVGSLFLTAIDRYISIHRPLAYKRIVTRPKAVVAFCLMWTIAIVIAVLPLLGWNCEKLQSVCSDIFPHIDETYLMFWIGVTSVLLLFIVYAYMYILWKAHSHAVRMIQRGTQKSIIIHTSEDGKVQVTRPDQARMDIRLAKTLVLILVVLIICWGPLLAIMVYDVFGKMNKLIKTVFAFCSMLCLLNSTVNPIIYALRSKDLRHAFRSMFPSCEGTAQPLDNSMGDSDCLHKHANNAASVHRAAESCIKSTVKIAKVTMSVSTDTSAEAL

`CCCCCCC(C)(C)C1=CC(=O)C2=C(OC(C)(C)c3cn(CC)nc32)C1=O`: the Ki on Cannabinoid receptor 1 amounted to 8.52 µM; on Cannabinoid receptor 2, 3.66 µM.

Take `CCCCCCC(C)(C)C1=CC(=O)C2=C(OC(C)(C)c3cn(C)nc32)C1=O`: the inhibitory constant (Ki) at Cannabinoid receptor 1 was 14.2 µM; at Cannabinoid receptor 2, 0.672 µM.

`CCCCCCC(C)(C)C1=CC(=O)C2=C(OC(C)(C)c3c[nH]nc32)C1=O`: the results for the Ki on Cannabinoid receptor 1 and at Cannabinoid receptor 2 were 0.324 µM and 0.134 µM, respectively. Further, in the assay with LNCaP [1], the TGI result is “Active”. Also, the figures for the IC50 in the assay on LNCaP [2], with PC-3 [18] and with HepG2 were 15 µM, 15 µM and 30 µM, respectively. The Activity in the assay on LNCaP [3] was 5.86%; with LNCaP [4], 7.09%; in the assay with LNCaP [5], 9.59%; with PC-3 [6], 30.24%; with LNCaP [8] it was 8.9%; with LNCaP [9], 74.68%. Also, the Activity was 12.52% in the assay with LNCaP [10]; 6.91% in the assay with PC-3 [11]; 5.97% with PC-3 [12]; 9.24% in the assay with LNCaP [14]; 10.09% in the assay with PC-3 [17]; 58.68% in the assay with PC-3 [19]. For the same compound, the Activity was found to be 3.98% with PC-3 [20] and 2.3% in the assay with PC-3 [22]. In the assay with LNCaP [7], the outcome was Active. The outcome in the assay with LNCaP [13], with LNCaP [16] and in the assay on LNCaP [21] was inactive. Moreover, the inhibition in vivo at 2 mg/kg in the assay on PC-3 [15] stood at 40%.
